Experimental data taken from patent US8440590B2, “Method for controlling soybean rust” (priority 2006, dated 2013).

Tests used:
Type in all cases: in vivo
[1] = test system: soybean cv. S-40-R9 (RR-soybean); assay: Crop tolerance test (germination after seed treatment), cv. S-40-R9
Procedure: (§1) Fifty soybean seeds of cv. S-40-R9 (RR-soybean) or cv. Williams (not GM) are sown 2 cm deep into trays filled with quarz sand. Seeds are treated prior to sowing with the formulated ais. The plants are grown at 20-23° C. in a greenhouse. If necessary, artificial lighting is supplied to give a 14 hr day.
(§2) Plant emergence 6 DAS and final stand 11 DAS is counted.

[2] = test system: soybean cv. Williams (not GM); assay: Crop tolerance test (germination after seed treatment), cv. Williams
Procedure: as §1, §2

[3] = test system: Phakopsora pachyrhizi; assay: Test for rust activity, leaf discs from seed-treated plants, cv. S-40-R9; settings: 11 DAI
Procedure: as §1
(§3) For the soybean rust assay, plants are transplanted 13 DAS into 8 cm pots filled with soil. 13 days after transplanting leaf discs are cut from the first and second true leaves and transferred to multiwell plates filled with water agar. 1 day later the leaf discs are inoculated with Phakopsora pachyrhizi. Assessment of the disease incidence is done 11 DAI (days after inoculation).

[4] = test system: Phakopsora pachyrhizi; assay: Test for rust activity, leaf discs from seed-treated plants, cv. Williams; settings: 11 DAI
Procedure: as §1, §3

[5] = GA seed treatment 1 g ai/100 kg, cv. S-40-R9, fifty seeds sown
[6] = GA seed treatment 2 g ai/100 kg, cv. S-40-R9, fifty seeds sown
[7] = GA seed treatment 1 g ai/100 kg
[8] = GA seed treatment 2 g ai/100 kg
[9] = GA seed treatment 1 g ai/100 kg, cv. Williams, fifty seeds sown
[10] = GA seed treatment 2 g ai/100 kg, cv. Williams, fifty seeds sown

CC(C1CC1)C(O)(Cn1cncn1)c1ccc(Cl)cc1 (stereo not shown) [Cyproconazole (CCZ), cyproconazole]
Effect on plant numbers and size (phytotoxicity) ([1]; in vivo): severe reductions in plant numbers and size | Germination % Emergence 6 DAS ([1]; in vivo): 0% | Germination Count 6 DAS ([1]; in vivo): 0 | Germination % Emergence 6 DAS ([2]; in vivo): 0% | Germination Count 6 DAS ([2]; in vivo): 0

C=C1C[C@]23C[C@@]1(O)CC[C@H]2[C@@]12C=C[C@H](O)[C@@](C)(C(=O)O1)[C@H]2[C@@H]3C(=O)O [Gibberelic acid (GA), gibberellic acid (gibberellin A3)]
Germination % Emergence 6 DAS [1, 5]: 100% | Germination % Final Stand 11 DAS [1, 5]: 100% | Germination Count 6 DAS [1, 5]: 50 | Germination Count 11 DAS [1, 5]: 50 | Germination % Emergence 6 DAS [1, 6]: 96% | Germination % Final Stand 11 DAS [1, 6]: 96% | Germination Count 6 DAS [1, 6]: 48 | Germination Count 11 DAS [1, 6]: 48 | 1st Leaf % Activity [3, 7]: 0.0% | 1st Leaf % Disease [3, 7]: 87.8% | 2nd Leaf % Activity [3, 7]: 0.0% | 2nd Leaf % Disease [3, 7]: 71.1% | 1st Leaf % Activity [3, 8]: 0.0% | 1st Leaf % Disease [3, 8]: 82.8% | 2nd Leaf % Activity [3, 8]: 0.0% | 2nd Leaf % Disease [3, 8]: 68.9% | 1st Leaf % Activity [4, 7]: 0.0% | 1st Leaf % Disease [4, 7]: 88.9% | 2nd Leaf % Activity [4, 7]: 32.4% | 2nd Leaf % Disease [4, 7]: 48.3% | 1st Leaf % Activity [4, 8]: 0.0% | 1st Leaf % Disease [4, 8]: 87.2% | 2nd Leaf % Activity [4, 8]: 28.4% | 2nd Leaf % Disease [4, 8]: 51.1% | Germination % Emergence 6 DAS [2, 9]: 100% | Germination % Final Stand 11 DAS [2, 9]: 100% | Germination Count 6 DAS [2, 9]: 50 | Germination Count 11 DAS [2, 9]: 50 | Germination % Emergence 6 DAS [2, 10]: 98% | Germination % Final Stand 11 DAS [2, 10]: 98% | Germination Count 6 DAS [2, 10]: 49 | Germination Count 11 DAS [2, 10]: 49
